Measurements reported in US10654847B2, “Substituted 2-(4-heterocyclylbenzyl)isoindolin-1-one analogs as positive allosteric modulators of the muscarinic acetylcholine receptor M1” (Vanderbilt University, priority 2011, dated 2020).

Target: T1, mAChR M1 (UniProt P11229)
T1 sequence (P11229 1-460): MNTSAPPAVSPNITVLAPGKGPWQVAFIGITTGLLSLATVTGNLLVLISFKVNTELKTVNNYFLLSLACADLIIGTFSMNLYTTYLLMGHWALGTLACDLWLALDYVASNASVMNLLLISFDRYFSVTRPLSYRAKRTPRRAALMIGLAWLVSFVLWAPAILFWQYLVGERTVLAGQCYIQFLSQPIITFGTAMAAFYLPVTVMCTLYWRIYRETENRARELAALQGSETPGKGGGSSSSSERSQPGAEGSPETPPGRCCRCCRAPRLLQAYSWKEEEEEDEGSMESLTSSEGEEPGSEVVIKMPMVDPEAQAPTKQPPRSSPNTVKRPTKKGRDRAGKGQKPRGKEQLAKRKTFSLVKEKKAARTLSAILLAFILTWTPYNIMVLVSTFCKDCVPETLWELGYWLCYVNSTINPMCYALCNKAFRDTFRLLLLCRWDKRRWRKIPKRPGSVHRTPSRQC
Test: mAChR M1 cell-based functional assay (calcium mobilization, potentiation of EC20 acetylcholine response)
Conditions: for Emax (%): % ACh maximum at 30 μM, mAChR M1-expressing CHO-K1 cells, calcium flux; for pEC50 / EC50: positive allosteric modulation of EC20 ACh response, mAChR M1 CHO-K1 cells; for pEC50: <5 estimated where no plateau; for EC50: >10 μM estimated where no plateau, read-out: EC50
Protocol: Chinese hamster ovary (CHO-K1) cells stably expressing rat (r)M1 were purchased from the American Type Culture Collection and cultured according to their indicated protocol. […] To make stable rM2, hM2, rM3, hM4, and rM4 cell lines for use in calcium mobilization assays, these cells also were stably transfected with a chimeric G-protein (Gqi5) (provided by B. R. Conklin, University of California, San Francisco) using Lipofectamine 2000. rM1, hM1, rM3, hM3, rM5, and hM5 cells were grown in Ham's F-12 medium containing 10% heat-inactivated fetal bovine serum (FBS), 20 mM HEPES, and 50 μg/mL G418 sulfate. rM2-Gqi5, hM2-Gqi5, and hM4-Gqi5 cells were grown in the same medium also containing 500 μg/mL Hygromycin B. Stable rM4-Gqi5 cells were grown in DMEM containing 10% heat-inactivated FBS, 20 mM HEPES, 400 μg/mL G418 sulfate, and 500 μg/mL Hygromycin B.
For high throughput measurement of agonist-evoked increases in intracellular calcium, CHO-K1 cells stably expressing muscarinic receptors were plated in growth medium lacking G418 and hygromycin at 15,000 cells/20 μL/well in Greiner 384-well black-walled, tissue culture (TC)-treated, clear-bottom plates (VWR). Cells were incubated overnight at 37° C. and 5% CO2. […] Compound master plates were formatted in an 11 point CRC format (1:3 dilutions) in 100% DMSO with a starting concentration of 10 mM using the BRAVO liquid handler (Agilent). Test compound CRCs were then transferred to daughter plates (240 nL) using the Echo acoustic plate reformatter (Labcyte, Sunnyvale, Calif.) and then diluted into assay buffer (40 μL) to a 2× stock using a Thermo Fisher Combi (Thermo Fisher Scientific, Waltham, Mass.).
Calcium flux was measured using the Functional Drug Screening System (FDSS) 6000 (Hamamatsu Corporation, Tokyo, Japan) as an increase in the fluorescent static ratio. Compounds were applied to cells (20 μL, 2×) using the automated system of the FDSS 6000 at 4 s into the 300 s protocol and the data were collected at 1 Hz. […] Agonist activity was analyzed as a concentration-dependent increase in calcium mobilization upon compound addition. Positive allosteric modulator activity was analyzed as a concentration-dependent increase in the EC20 acetylcholine response. Antagonist activity was analyzed as a concentration-dependent decrease in the EC80 acetylcholine response. Concentration-response curves were generated using a four-parameter logistical equation in XLfit curve fitting software (IDBS, Bridgewater, N.J.) for Excel (Microsoft, Redmond, Wash.) or Prism (GraphPad Software, Inc., San Diego, Calif.).
The above described assay was also operated in a second mode where an appropriate fixed concentration of the present compounds were added to the cells after establishment of a fluorescence baseline for about 3 seconds, and the response in cells was measured. […] Data were reduced as described above and the EC50 values for the agonist in the presence of test compound were determined by nonlinear curve fitting. A decrease in the EC50 value of the agonist with increasing concentrations of the present compounds (a leftward shift of the agonist concentration-response curve) is an indication of the degree of muscarinic positive allosteric modulation at a given concentration of the present compound. An increase in the EC50 value of the agonist with increasing concentrations of the present compounds (a rightward shift of the agonist concentration response curve) is an indication of the degree of muscarinic antagonism at a given concentration of the present compound. The second mode also indicates whether the present compounds also affect the maximum response of the muscarinic receptor to agonists.
The calcium mobilization assay was also used to determine “efficacy”.

Row | SMILES | Emax (%) | pEC50 | EC50
1 | Cn1cc(-c2cnc(CN3Cc4ncccc4C3=O)c(F)c2)cn1 [Example B18] | 40% | <5.00 | > 10 µM
2 | Cn1cc2cc(-c3ccc(F)c(CN4Cc5ncccc5C4=O)c3)ccc2n1 [Example B111] | 42% | 5.63 | 2.34 µM
3 | Cn1cc2cc(-c3cc(F)c(CN4Cc5ncccc5C4=O)cc3F)ccc2n1 [Example B105] | 69% | 6.39 | 0.407 µM
4 | O=C1c2cccnc2CN1Cc1c(F)cc(-c2cnc3ccccn23)cc1F [Example B88] | 63% | <5.00 | > 10 µM
5 | CN1CC=C(c2ccc(CN3Cc4ncccc4C3=O)c(F)c2)CC1 [Example B53] | 80% | 5.51 | 3.09 µM
6 | O=C1c2cccnc2CN1Cc1ccc(-c2ccncc2)cc1F [Example B41] | 70% | 5.33 | 4.68 µM
7 | O=C1c2cccnc2CN1Cc1c(F)cc(-c2cccc3cnccc23)cc1F [Example B99] | 41% | <5.00 | > 10 µM
8 | O=C1c2cccnc2CN1Cc1c(F)cc(-c2ccc3ncccc3c2)cc1F [Example B96] | 54% | 6.56 | 0.275 µM
9 | O=C1c2cccnc2CN1Cc1ccc(-c2ccnc(F)c2)cc1F [Example B14] | 36% | <5.00 | > 10 µM
10 | O=C1c2cccnc2CN1Cc1ccc(-c2ccc3nccn3c2)cc1F [Example B57] | 69% | 5.68 | 2.09 µM
11 | CN(C)c1ccc(-c2ccc(CN3Cc4ncccc4C3=O)c(F)c2)cn1 [Example B39] | 31% | 5.98 | 1.05 µM
12 | O=C1c2ncccc2CN1Cc1ccc(-c2cccc3ncccc23)cc1F [Example B77] | 42% | 5.74 | 1.82 µM
13 | Cn1ncc2c(-c3ccc(CN4Cc5ncccc5C4=O)c(F)c3)cccc21 [Example B29] | 58% | 5.80 | 1.59 µM
14 | O=C1c2cccnc2CN1Cc1c(F)cc(-c2ccc3cnccc3c2)cc1F [Example B97] | 62% | 6.23 | 0.589 µM
15 | O=C1c2cccnc2CN1Cc1c(F)cc(-c2ccc3c(c2)C2(OCCO2)C(=O)N3)cc1F [Example B101] | 48% | <5.00 | > 10 µM
16 | COc1ncccc1-c1ccc(CN2Cc3ncccc3C2=O)c(F)c1 [Example B33] | 31% | <5.00 | > 10 µM
17 | CC1c2ccccc2C(=O)N1Cc1ccc(-c2cnn(C)c2)cc1F (stereo not drawn) [Example B113] | <30% | <5.00 | > 10 µM
18 | Cn1cc2c(-c3cc(F)c(CN4Cc5ncccc5C4=O)c(F)c3)cccc2n1 [Example B81] | 80% | 6.80 | 0.158 µM

Next, values leading:

Row | Emax (%) | pEC50 | EC50 | SMILES
19 | 41% | <5.00 | > 10 µM | Cc1cc(-c2ccncc2)ccc1CN1Cc2cccnc2C1=O [Example B84]
20 | <30% | <5.00 | > 10 µM | Cc1nnc(-c2ccc(CN3Cc4ccccc4S3(=O)=O)cc2)o1 [Example B123]
21 | 56% | 5.28 | 5.25 µM | O=C1c2ncccc2CN1Cc1ccc(-c2cccnc2)cc1Cl [Example B67]
22 | <30% | <5.00 | > 10 µM | Cc1nc(-c2ccc(CN3Cc4ccccc4S3(=O)=O)cc2)no1 [Example B119]
23 | 38% | <5.00 | > 10 µM | Cn1ncc2cc(-c3ccc(CN4Cc5cccnc5C4=O)c(F)c3)ccc21 [Example B61]
24 | 34% | 6.01 | 0.977 µM | COc1ccc(-c2ccc(CN3Cc4ncccc4C3=O)c(F)c2)cc1 [Example B50]
25 | 76% | 5.80 | 1.59 µM | Cn1ncc2ccc(-c3ccc(CN4Cc5cccnc5C4=O)c(F)c3)cc21 [Example B60]
26 | 80% | 5.71 | 1.95 µM | Cn1cc2ccc(-c3ccc(CN4Cc5ncccc5C4=O)c(F)c3)cc2n1 [Example B35]
27 | 63% | <5.00 | > 10 µM | Cn1cc(-c2ccc(CN3Cc4ccccc4S3(=O)=O)c(F)c2)cn1 [Example B23]
28 | <30% | <5.00 | > 10 µM | O=C1c2ccccc2CN1Cc1ccc(-n2cncn2)cc1F [Example B126]
29 | 35% | <5.00 | > 10 µM | CC(c1ccc(-c2cnn(C)c2)cc1F)N1Cc2ccccc2C1=O (stereo not drawn) [Example B13, 2-(1-(2-fluoro-4-(1-methyl-1H-pyrazol-4-yl)phenyl)ethyl)isoindolin-1-one]
30 | 52% | 5.84 | 1.44 µM | O=C1c2ncccc2CN1Cc1ccc(-c2cnc3ccccc3c2)cc1F [Example B66]
31 | 56% | <5.00 | > 10 µM | O=C1c2ncccc2CN1Cc1ccc(-c2ccncc2)cc1F [Example B65]
32 | 34% | <5.00 | > 10 µM | Cc1cc(-c2cnc(Cl)c(C)c2)ccc1CN1Cc2cccnc2C1=O [Example B83]
33 | 41% | <5.00 | > 10 µM | Cc1cc(-c2cccnc2)ccc1CN1Cc2cccnc2C1=O [Example B85]
34 | 40% | <5.00 | > 10 µM | Cn1nccc1-c1ccc(CN2Cc3ccccc3C2=O)c(F)c1 [Example B19]
35 | 82% | 5.96 | 1.1 µM | Cn1cc2cc(-c3ccc(CN4Cc5ncccc5C4=O)c(F)c3)ccc2n1 [Example B1]
36 | <30% | <5.00 | > 10 µM | Cc1nc(-c2ccc(CN3Cc4ccccc4S3(=O)=O)cc2)cs1 [Example B116]
37 | <30% | <5.00 | > 10 µM | CSc1ncc(-c2ccc(CN3Cc4ccccc4C3=O)c(F)c2)cn1 [Example B122]
38 | 40% | 5.46 | 3.47 µM | O=C1c2cccnc2CN1Cc1ccc(-c2ccc(Cl)nc2)cc1F [Example B30]
39 | <30% | <5.00 | > 10 µM | Cn1ccc2cc(-c3ccc(CN4Cc5ncccc5C4=O)c(F)c3)ccc21 [Example B127]
40 | 51% | <5.00 | > 10 µM | O=C1c2ccccc2CN1Cc1ccc(-n2ccnc2)cc1F [Example B22]
41 | <30% | <5.00 | > 10 µM | O=S1(=O)c2ccccc2CN1Cc1ccc(Oc2ccccc2)cc1 [Example B124]
